# Entries after “also recorded” stand apart in the source; their conditions may differ. Where two headings read alike, the source gives them in different places.
# Tests used:
# [1] = test system: OVCAR2 cells; experiment: Cytotoxicity CellTiter-Glo; format: cell-based, human; settings: read-out: IC50 (50% growth inhibition); OVCAR2, Ovary; 72 hours
# [2] = test system: genomic DNA; experiment: Platinum-DNA adducts by ICP-MS in HEK293 cells; format: cell-based, human
# Protocol: Method to quantify platinum-DNA adducts by ICP-MS has been previously described (5,6). In brief, HEK293 cells were seeded in 6-well poly-D-lysine plate (cell density=0.5×10^6 cells/well). […] After 2 hours, the cells were washed twice with cold HBBS. The platinum content associated with genomic DNA was determined as described elsewhere. Genomic DNA was isolated from the cell pellets using Genomic DNA purification kit (Promega) and the DNA-bound platinum was determined by ICP-MS, which was normalized to total DNA content (determined by absorption spectrometry at 260 nm).
# [3] = Maximum tolerated dose study: body weight, food consumption, moribundity, MTD
# Protocol: The mice used in MTD were given standard chow devoid of added folic acid (low folate diet) (See, Leamon C P et al., J. Pharmacol. Exp. Ther. 327: 918-925). […] Therefore we also designed a MTD study in mice treated with low folate diet. Food consumption on the day before injection (Day −1) was recorded and then it was monitored every other day. […] Blood for clinical chemistry was collected if possible. Liver, kidney and bone marrow were collected. One side of each tissue (except bone marrow) will be fixed in 4-10% formalin for future histology analysis, and the rest of tissue will be cut into pieces, snap frozen, and stored at −80° C. until analysis. Blood samples for clinical chemistry were centrifuged at 8000 rpm for 10 min at 4° C. within 1 hour of collection. Plasma was collected into 1.5 mL eppendorf tubes and stored at −80° C. until analysis. The measured parameters were alanine transaminase (ALT), aspartate transaminase (AST), alkaline phosphatase (ALP), total bilirubin, glucose, blood urea nitrogen (BUN), creatinine, and electrolytes. All experiments were housed in a virus-free, temperature controlled facility on a 12-h light-dark cycle.
# (§1) The concentration versus time course of total platinum followed a two-compartment model in the mice. […] In the maximum tolerated dose studies, we observed body weight reduction in all mice due to the low folate diet (FIG. 6).
# [4] = test system: U251 cells; experiment: Cytotoxicity CellTiter-Glo; format: cell-based, human
# [5] = test system: DU145 cells; experiment: Cytotoxicity CellTiter-Glo; format: cell-based, human; settings: read-out: IC50 (50% growth inhibition); DU145, Prostate; 72 hours
# Protocol: (§2) Human cancer cell lines were purchased from UCSF Cell Culture Facility (CCF) or obtained through Material Transfer.
# (§3) The range of platinum concentrations used in the studies are 5 μM-100 μM. After 72 hours of treatment, the medium were removed and replaced with 50 μL of the media plus 50 μL of the CellTiterGlo reagent. The number of viable cells in culture will be determined based on quantitation of the ATP present, which is an indicator of the number of active cells. Concentration response graphs were generated for each compound using GraphPad Prism software. The graphs were analyzed using a curve fit for sigmoid dose-response, and IC50 values were derived. The results were expressed as mean IC50 values with the standard error of the mean.
# [6] = test system: HT29 cells; experiment: Cytotoxicity CellTiter-Glo; format: cell-based, human; settings: read-out: IC50 (50% growth inhibition); HT29, Colon; 72 hours
# Protocol: as §2, §3
# [7] = test system: AsPC1 cells; experiment: Cytotoxicity CellTiter-Glo; format: cell-based, human; settings: read-out: IC50 (50% growth inhibition); AsPC1, Pancreas; 72 hours
# Protocol: as §2, §3
# [8] = test system: H226 cells; experiment: Cytotoxicity CellTiter-Glo; format: cell-based, human; settings: read-out: IC50 (50% growth inhibition); H226, Non-small cell squamous; 72 hours
# Protocol: as §2, §3
# [9] = test system: PC3 cells; experiment: Cytotoxicity CellTiter-Glo; format: cell-based, human; settings: read-out: IC50 (50% growth inhibition); PC3, Prostate; 72 hours
# Protocol: as §2, §3
# [10] = test system: HCT116 cells; experiment: Cytotoxicity CellTiter-Glo; format: cell-based, human; settings: read-out: IC50 (50% growth inhibition); HCT116, Colon; 72 hours
# Protocol: as §2, §3
# [11] = test system: A549 cells; experiment: Cytotoxicity CellTiter-Glo; format: cell-based, human; settings: read-out: IC50 (50% growth inhibition); A549, Non-small cell lung; 72 hours
# Protocol: as §2, §3
# [12] = test system: SNF539 cells; experiment: Cytotoxicity CellTiter-Glo; format: cell-based, human
# [13] = test system: A2780 cells; experiment: Cytotoxicity CellTiter-Glo; format: cell-based, human; settings: read-out: IC50 (50% growth inhibition); A2780, Ovary; 72 hours
# [14] = test system: PE01 cells; experiment: Cytotoxicity CellTiter-Glo; format: cell-based, human; settings: read-out: IC50 (50% growth inhibition); PE01, Ovary; 72 hours
# [15] = test system: PE04 cells; experiment: Cytotoxicity CellTiter-Glo; format: cell-based, human; settings: read-out: IC50 (50% growth inhibition); PE04, Ovary; 72 hours
# [16] = test system: Kelly cells; experiment: Cytotoxicity CellTiter-Glo; format: cell-based, human
# [17] = test system: SK-N-DZ neuroblastoma xenografts; experiment: SK-N-DZ neuroblastoma xenograft in nu/nu mice; format: in vivo, mouse; settings: for tumor volume / tumor growth: SKNDZ neuroblastoma xenograft, 5 mg/kg i.v. once a week for 4 weeks
# Protocol: The xenograft studies were performed by subcutaneous injection of SK-N-DZ (neuroblastoma, 30×10^6 cells/animal) and RMS13 (rhabdomyosarcoma, 20×10^6 cells/animal) in right flank of the male Charles River Laboratories nu/nu mice (7-8 weeks old, weight ˜20 g). Mice were treated by intravenous tail vein injection once a week for 4 weeks. The tumor sizes and body weights were monitored twice a week. Tumor volumes were calculated according to the following formula: volume=height×[…]×length×0.5236.
# [18] = Pharmacokinetics: total platinum in plasma after i.v. tail vein injection; settings: equimolar doses: SM-69 5 mpk, cisplatin 2 mpk; single i.v. dose, mice
# From the text: as §1
substance,measurement,setting,value
[Pt(DMSO)methotrexate(Cl)] [SM-69],IC50,[1],3.3 ± 1.6 µM
same,"platinum content associated with genomic DNA, dose dependence",[2],higher with higher doses
same,platinum content associated with genomic DNA (platinum-DNA adducts),"[2]; 10 μM, 2 hours",form platinum-DNA adducts similarly to cisplatin
same,body weight reduction compared with saline and vehicle treated,"[3]; 2.5 mg/kg once a week, low folate diet",similar
same,Body weight (% of vehicle) over 30-days,"[3]; 2.5, 5, 7.5 mpk",significant body weight loss
same,cumulative food consumption over 30-days,"[3]; 2.5, 5, 7.5 mpk, mouse model",dose-dependently alter food consumption
same,maximum tolerated dose,"[3]; i.v. once a week, mice on low folate diet",approximately 5 mg/kg
same,IC50,"[4]; read-out: IC50 (50% growth inhibition), U251, Brain, 72 hours",4 ± 4.5 µM
same,IC50,"[4]; read-out: IC50 ± S.D. (50% growth inhibition), U251, Brain - High grade, + 1 mM Folic Acid",6.1 ± 0.29 µM
same,IC50,"[4]; read-out: IC50 ± S.D. (50% growth inhibition), U251, Brain - High grade, two independent experiments",0.25 ± 0.02 µM
same,IC50,[5],1500 ± 200 nM
same,IC50,[6],5.9 ± 1.6 µM
same,IC50,[7],7 ± 0.4 µM
same,IC50,[8],16.4 ± 13.1 µM
same,IC50,[9],6.3 ± 1.5 µM
same,IC50,[10],4.8 ± 0.6 µM
same,IC50,[11],1200 ± 700 nM
same,IC50,"[12]; read-out: IC50 (50% growth inhibition), SNF539, Brain, 72 hours",1.2 ± 1.1 µM
same,IC50,"[12]; read-out: IC50 ± S.D. (50% growth inhibition), SF539, Brain - High grade, + 1 mM Folic Acid",13.4 ± 4.8 µM
same,IC50,[13],1200 ± 200 nM
same,IC50,[14],600 ± 400 nM
same,IC50,[15],4.9 ± 2 µM
same,GI50,[16]; Neuroblastoma,3.7 ± 2.7 µM
same,IC50,"[16]; read-out: IC50 (50% growth inhibition), Neuroblastoma, 72 hours",3.7 ± 2.7 µM
same,tumor volume / tumor growth,[17]; 5 mg/kg,significantly different compared with other groups; also recorded: significantly lower compared with SM-70
same,tumor volume / tumor growth,"[17]; listed as AT-69, 5 mg/kg",significantly reduces NB tumor growth; also recorded: inhibited tumor growth; also recorded: more potent than cisplatin
same,survival,"[17]; SKNDZ xenograft model, 5 mpk, listed as AT-69, 5 mg/kg",significant increase; also recorded: significantly increase survival; also recorded: significant difference in survival; also recorded: increase survival rate
same,total platinum levels in plasma compared with cisplatin,[18],higher plasma levels of total platinum; also recorded: significantly higher than cisplatin

# Reference: US10392412B2, “Platinum anticancer agents” (THE REGENTS OF THE UNIVERSITY OF CALIFORNIA, priority 2015, dated 2019)
